From patent US20050182002A1, “Agents which interact with a serotonin transporter for the treatment of cancer” (priority 2002, published 2005)
Read-outs that look alike come from different tables or passages of the source.

Assays:
Format in all cases: cell-based
L3055 BL cells = test: DNA synthesis by [3H]-thymidine incorporation in L3055 cells; settings: for inhibition at 50 µM: L3055, 5-HT 50 μM; for effect on DNA synthesis (in words): single dose, range of concentrations, [3H]-thymidine incorporation at 24 hr; for influence of pre-treatment on 5-HT-dependent inhibition of DNA synthesis (in words): cells pre-treated with agent before 5-HT
Method: (§1) DNA synthesis was determined by measuring ^3H-thymidine ([^3H]Tdr; Amersham, UK) incorporation into cellular DNA. Cells were cultured in 200 μL of supplemented medium at densities and for times indicated below in flat-bottomed, 96-well tissue culture plates (Becton Dickinson, Oxford, U K) then pulsed for the final 4 h with 50 μl of 10 μCi/ml [^3H]Tdr before harvesting on a Skatron cell harvester (Helis Bio Ltd, Newmarket, UK).

[1] = tested on: group I BL cell lines Mutu I, Elijah, and BL2; test: DNA synthesis by [3H]-thymidine incorporation in other group I BL cell lines; settings: 125 μM 5-HT, 24 hr
Method: as §1
(§2) Three other group I BL cell lines were also investigated, namely: Mutu I, Elijah, and BL2.

[2] = tested on: Mutu III, an apoptosis resistant (group III) BL cell line; test: DNA synthesis by [3H]-thymidine incorporation in Mutu III; settings: 125 μM 5-HT, 24 hr
Method: as §1, §2

[3] = tested on: T-cell leukaemia line, Jurkat; test: 5-HT sensitivity of Jurkat line; settings: not shown
L3055 cells [4] = test: Cell cycle analysis (propidium iodide, flow cytometry); settings: 24 hr; each at its maximal concentration (5-HT 150 μM, fluoxetine 10 μM, anti-μ chain antibody 10 μg/ml)
Method: Cells cultured under conditions indicated below were harvested into 100 μl of 1×PBS followed by 400 μl cell cycle buffer containing Triton X-100 and propidium iodide and left to incubate at 4° C. for 1 hr to allow staining of DNA. The degree of fluorescence emitted by bound PI is directly proportional to the amount of DNA in each cell and was measured by flow cytometry as previously described (MacDonald I, et al. Blood (1996); 87:1147-1154). Results are expressed as percentage of viable cells residing in each phase of the cycle.

L3055 cells [5] = test: Viability by FACS forward versus side light scatter
Method: (§3) Changes in the viability of cells cultured under conditions indicated below were quantified by assessment of forward and 90° (side) light scatter of cells as previously described (Dive C, et al. Biochimica Biophysica Acta (1992); 1133:275-285) using an EPICS XL-MCL flow cytometer (Beckman Coulter, Miami, Fla., USA). Prior to analysis, cells were harvested into polythene FACS tubes, and fixed at 4° C. in 400 μl of FACS buffer [PBS with 5% NGS and 2% Formaldehyde] (BDH/MERCK). Cells were gated in two populations (viable and dead) according to their forward and side light scatter. Viability was expressed as a percentage of the total number of cells residing in the viable and non-viable gates. Cells were also analysed according to Schuurhuis et al (Schuurhuis G J, et al. Exp. Haematol. (1997); 25:754-759) in order to assess the percentages within treated populations of those that were viable, apoptotic, or necrotic. Syto 16 was added at a concentration of 250 nM in PBS to 500,000 cells and incubated at RT for 30 min, at which time 5 μg/ml propidium iodide (PI) was added. Samples were then analysed immediately by FACS and a 2D plot generated of syto 16 fluorescence versus PI fluorescence: syto 16 is taken up only by viable cells whereas Pi exclusively enters necrotic cells—syto 16^−ve/PI^−ve cells are deemed apoptotic.

L3055 cells [6] = test: Syto 16 / propidium iodide staining (viable, apoptotic, necrotic); settings: increasing concentrations, 24 hr
Method: as §3

L3055 cells [7] = test: Mitochondrial depolarisation with JC-1 dye; settings: following exposure to 5-HT; not shown
Method: Apoptosis was assessed by staining cells with acridine orange and visualising nuclear morphology exactly as described previously (Gordon J, et al. Cell Death. Diff. (2000); 7:785-794). Viable cells display a homogeneous chromatin-staining pattern, whereas apoptotic cells characteristically show condensed and fragmented chromatin. Mitochondrial depolarisation was assessed using the JC-1 cationic dye. Cells were incubated with 10 μM of JC-1 for 30 min before being visualised on a LSM 510 confocal microscope (Zeiss, Germany). […] Mitochondrial depolarisation is indicated by a decrease in the red/green fluorescence ratio.

L3055 cells [8] = test: Caspase activity (FAM-VAD-FMK, FACS); settings: for effect on number of cells showing caspase activity (in words): single dose for 24 hours, fluoxetine 10 μM, paroxetine 10 μM, citalopram 100 μM
Method: Caspase activity was detected using the CaspaTag Caspase Activity Kit (Intergen, Oxford, UK). Cells cultured under the conditions indicated below were harvested into 300 μl of culture medium at a cell density of 10^6cells/ml, followed by the addition of […] of a 30×working solution of FAM-VAD-FMK (a carboxy fluorescent tagged caspase inhibitor) (Intergen Co., USA). Cells were then incubated for 1 hr at 37° C. under 5% CO2 while protecting the tubes from light. At the end of the incubation, they were washed twice in 2 ml of 1×washing buffer, followed by addition of 2 μl of PI to distinguish dead cells from live cells, then analysed on an EPICS XL-MCL flow cytometer or by confocal microscopy. For the latter, treated cells were harvested into 300 μl of culture medium containing 10 μl of FAM-VAD-FMK before incubating for 1 hr under the conditions described above. Next, 1.5 μl of Hoechst 33342 stain was added for 5 min, and cells were washed twice in 2 ml of 1×washing buffer following the addition of 1 μl of PI.

L3055 cells [9] = test: OxyDNA assay of oxidative damage to DNA; settings: 6 hr; 150 μM 5-HT or 30 μM H2O2
Method: Oxidative damage to DNA was quantified using the OxyDNA assay (Biotrin, Dublin, Ireland). Following culture of cells under conditions indicated below, they were washed first in 1×PBS then in wash solution followed by addition of 100 μl of blocking solution with a 1 hr incubation at 37° C. On washing twice in working solution, cells were then incubated with 100 μl FITC-conjugate for 1 hr in the dark at RT before being washed twice in washing solution and once in PBS. Finally, cells were resuspended in FACS buffer and analysed on an EPICS XL-MCL flow cytometer.
While the above experiments offer evidence that oxidative stress was not the cause of 5-HT-induced apoptosis in BL cells, further more direct examination of the generation of potential reactive oxygen species (ROS) as a consequence of 5-HT uptake was undertaken. For this the OxyuDNA assay was used, which quantifies 8-oxo-7,8-dihydro-2′-deoxyguanosine (8-oxodGuo) residues that are generated as a result of oxidative damage to DNA (see methods section 1.1.8 above).

[10] = tested on: Bcl-2 transfected BL cell line; test: Viability (FACS light scatter) of Bcl-2 transfected BL cell line
Method: Group I Burkitt's lymphoma cell lines L3055 (EBV^neg), BL2 (EBV^neg), Elijah (EBV^pos), and MUTU I (EBV^pos) were maintained in early passage as described previously (Baker M P, Eliopoulos E, Young L S, Armitage R J, Gregory C D, Gordon J. Blood (1998); 92:2830-2843). The late passage group III BL line MUTU III (EBV^pos) was also used with all cells cultured in RPMI 1640 medium supplemented with 10% Serum Supreme (BioWhittaker, Wokingham, UK), 2 mM glutamine, 100 IU/ml penicillin and 100 μg/ml streptomycin. […]
Changes in the viability of cells cultured under conditions indicated below were quantified by assessment of forward and 90° (side) light scatter of cells as previously described (Dive C, et al. Biochimica Biophysica Acta (1992); 1133:275-285) using an EPICS XL-MCL flow cytometer (Beckman Coulter, Miami, Fla., USA). […] Viability was expressed as a percentage of the total number of cells residing in the viable and non-viable gates. Cells were also analysed according to Schuurhuis et al (Schuurhuis G J, et al. Exp. Haematol. (1997); 25:754-759) in order to assess the percentages within treated populations of those that were viable, apoptotic, or necrotic. […]

L3055 cells [11] = test: Intracellular free Ca2+; settings: data not shown
Excerpt: The increase in intracellular free Ca^2+ is known to be an important step in the induction of apoptosis.

## NCCc1c[nH]c2ccc(O)cc12 [Example 5-HT, Serotonin]
L3055 BL cells; 1 μM 5-HT, very early passage, lower cell numbers, data not shown
  effect on level of DNA synthesis (in words): significant reduction
L3055 BL cells; cells plated at 2×10^4 per well
  inhibition at 50 µM: ~35%
L3055 BL cells; cells plated at 5×10^3 per well
  inhibition at 50 µM: > 90%
L3055 BL cells; cells plated at 10^4 per well
  inhibition at 50 µM: ~70%
L3055 BL cells; L3055, read-out: 5-HT required to achieve 50% inhibition of DNA synthesis, plated at 2.5×10^4 per ml (5×10^3 per well)
  IC50: ~5 µM
L3055 BL cells; L3055, read-out: 5-HT required to achieve 50% inhibition of DNA synthesis, plating density 10^5 per ml (2×10^4/well)
  IC50: > 50 µM
L3055 BL cells
  effect on DNA synthesis (in words): caused a reduction in DNA synthesis in a concentration-dependent manner
[1]
  effect on DNA synthesis (in words): substantial decrease in DNA synthesis
[2]
  effect on DNA synthesis (in words): only marginally decreased DNA synthesis
[3]
  sensitivity to 5-HT actions (in words): insensitive
L3055 cells [4]
  cell cycle status (in words): accumulation of arresting cells in the G0/G1 compartment
L3055 cells [5]; 1 to 150 μM, 24 hr
  cells with light scatter characteristics of dead cells (in words): dramatic concentration-dependent increase in the number of L3055 cells acquiring light scatter characteristics of dead cells
L3055 cells [5]; L3055, 24 h, read-out: % viable cells (24 h)
  viability at 150 µM: 21.3 ± 8.65%
L3055 cells [6]
  number of viable cells (syto 16+ve/PI−ve) (in words): decreased in a concentration-dependent manner
L3055 cells [7]
  mitochondrial membrane potential (in words): loss of mitochondrial membrane potential
L3055 cells [8]; 5-HT 150 μM, fluoxetine 5 μM, paroxetine 2 μM, citalopram 10 μM, means ± S.E.M. of 3, control 27.3 ± 1.20
  % caspase activation (6 h): 58.3 ± 2.03%
L3055 cells [8]; 6 hr 5-HT treatment, background level 29%
  percentage of cells showing caspase activity: 59%
L3055 cells [9]
  level of oxidatively damaged DNA (8-oxoguanosine residues) (in words): no increase in the level of oxidatively damaged DNA

## C#CCN(C)CCCOc1ccc(Cl)cc1Cl [clorgyline]
L3055 BL cells
  influence of pre-treatment on 5-HT-dependent inhibition of DNA synthesis (in words): the same outcome was observed

## CN(C)CCCN1c2ccccc2CCc2ccccc21 [imipramine]
L3055 BL cells
  effect on DNA synthesis (in words): dose dependant effect
L3055 cells [5]; native cell line (panel I, FIG. 26)
  survival (live cells): 30%
L3055 cells [8]
  effect on number of cells showing caspase activity (in words): significant effect on the number of cells exhibiting caspase activity
[10]; 24 hrs
  cell killing in Bcl-2 transfected versus native BL cell line (in words): greatly reduced
[10]; Bcl-2 transfected BL cell line (panel II, FIG. 26)
  survival (live cells): 91%

## Fc1ccc([C@@H]2CCNC[C@H]2COc2ccc3c(c2)OCO3)cc1 [paroxetine]
L3055 BL cells
  influence of pre-treatment on 5-HT-dependent inhibition of DNA synthesis (in words): substantially reversed
  effect on DNA synthesis (in words): dose dependent inhibitory effect
L3055 cells [8]
  effect on number of cells showing caspase activity (in words): significant effect on the numbers of cells showing caspase activity
L3055 cells [11]
  basal Ca2+ (in words): increase in basal Ca^2+

## C#CCN(C)[C@H](C)Cc1ccccc1 [deprenyl]
L3055 BL cells
  influence of pre-treatment on 5-HT-dependent inhibition of DNA synthesis (in words): the same outcome was observed

## OO [Example H2O2, H2O2]
L3055 cells [9]
  level of oxidatively damaged DNA (8-oxoguanosine residues) (in words): large increase in the level of 8-oxoguanosine residues generated

## CCN(CC)CCOC(=O)c1cc(Cl)c(N)cc1OC [SDZ205-557]
L3055 BL cells
  influence of pre-treatment on 5-HT-dependent inhibition of DNA synthesis (in words): failed to influence the ability of 5-HT to inhibit DNA synthesis

## C#CCN(C)Cc1ccccc1 [pargyline]
L3055 BL cells; 100 μM pargyline, no 5-HT
  effect of agent by itself on DNA synthesis (in words): no deleterious effect by itself
L3055 BL cells
  influence of pre-treatment on 5-HT-dependent inhibition of DNA synthesis (in words): failed to influence 5-HT-induced cessation of DNA synthesis
